US20250002471A1 (Gilead Sciences, Inc., priority 2020, published 2025)
One block for each compound: values may come before it.

Key:
TLR7 = biological target: T1, TLR7 (Homo sapiens, UniProt Q9NYK1); assay: Human PBMC cell-based assay, TLR7 agonist GS-986 stimulation, cytokine (IL-6 and IFNα) readout; details: human PBMCs, GS-986 400 nM, 6 hours; Table 26; read-out: TLR-7 EC50
T1 construct: lymphocytes, monocytes and dendritic cells that express TLR7, TLR8 and TLR9; endogenous in cells; host or cells: human PBMCs from healthy donors
T1 sequence (Q9NYK1 27-1049): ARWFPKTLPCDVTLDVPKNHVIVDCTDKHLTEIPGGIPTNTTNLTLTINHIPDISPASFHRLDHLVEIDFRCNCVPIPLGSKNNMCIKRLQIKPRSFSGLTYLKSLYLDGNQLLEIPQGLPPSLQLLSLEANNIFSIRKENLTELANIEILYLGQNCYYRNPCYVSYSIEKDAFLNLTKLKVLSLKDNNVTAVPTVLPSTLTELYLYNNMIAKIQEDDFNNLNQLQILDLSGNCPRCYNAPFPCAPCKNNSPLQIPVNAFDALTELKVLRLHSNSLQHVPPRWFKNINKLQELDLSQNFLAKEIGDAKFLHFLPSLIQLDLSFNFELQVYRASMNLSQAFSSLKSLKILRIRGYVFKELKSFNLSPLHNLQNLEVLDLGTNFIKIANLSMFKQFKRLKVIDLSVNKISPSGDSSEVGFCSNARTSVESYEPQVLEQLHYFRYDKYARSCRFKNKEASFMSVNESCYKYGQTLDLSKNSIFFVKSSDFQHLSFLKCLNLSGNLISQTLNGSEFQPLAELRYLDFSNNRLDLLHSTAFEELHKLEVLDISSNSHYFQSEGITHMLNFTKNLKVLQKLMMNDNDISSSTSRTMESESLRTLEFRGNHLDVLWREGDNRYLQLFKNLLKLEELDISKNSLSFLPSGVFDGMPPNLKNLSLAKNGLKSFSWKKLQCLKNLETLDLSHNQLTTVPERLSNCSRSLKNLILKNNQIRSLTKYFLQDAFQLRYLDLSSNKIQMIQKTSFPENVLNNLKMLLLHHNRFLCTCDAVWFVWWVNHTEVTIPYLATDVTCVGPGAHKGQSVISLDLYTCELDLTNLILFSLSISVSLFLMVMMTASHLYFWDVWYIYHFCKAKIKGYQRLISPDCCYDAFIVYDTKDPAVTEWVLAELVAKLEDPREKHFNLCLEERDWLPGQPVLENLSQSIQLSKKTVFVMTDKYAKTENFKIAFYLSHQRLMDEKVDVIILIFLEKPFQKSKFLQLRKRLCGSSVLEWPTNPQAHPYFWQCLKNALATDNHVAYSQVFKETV
Source text: (§1) Human peripheral blood mononuclear cells (PBMCs) consist of lymphocytes, monocytes and dendritic cells that express TLR7, TLR8 and TLR9. These cells respond to TLR7, TLR8 and TLR9 ligand stimulation and produce cytokines and chemokines in vitro and in vivo. Human PBMCs are therefore suitable to be used in a cell-based assay to assess the in vitro potency of a TLR 7, 8, and/or 9 antagonist. The result is expected to be more translatable to the pharmacodynamics response in vivo than cell line-based assays.
(§2) Cryopreserved human PBMCs from healthy donors were thawed and resuspended in RPMI-1640 media with L-glutamine (Corning) supplemented with 10% Fetal Bovine Serum (Hyclone) and 1X Penicillin-Streptomycin (Corning). After counting, the cell density was adjusted to 2 million cells/ml and incubated for 1 hour at 37° C., 5% CO2 for recovery. Following the recovery, the cells were plated by adding 50p per well (100,000 cells) to 384-well cell culture plates (Greiner) containing 250nl of test antagonists in 100% DMSO per well, in a 10 points dose response in quadruplicates. PBMCs were incubated in the presence of test antagonists for one hour at 37° C., 5% CO2 before being stimulated with a TLR7 or TLR9 agonist. GS-986 (Gilead Sciences) was used as the TLR7 agonist at a final concentration of 400 nM. ODN-2216 (InvivoGen) was used as the TLR9 agonist at a final concentration of 3μM. PBMCs were incubated in the presence of the test antagonist and the TLR7 (or TLR9) agonist for an additional 6 hours at 37° C., 5% CO2. At the end of the incubation, the cell culture plates were centrifuged at 500 g for 5 min, and the cell culture supernatant was collected. The level of cytokines (IL-6 and IFNα) in the supernatant was measured by electrochemiluminescence immunoassays (Mesoscale Discovery) following manufacturer's recommended protocols. The level of cytokine measured was plotted against the test antagonist concentration and fitted to a sigmoidal function to determine the EC50, which are shown below in Table 26.

TLR9 = biological target: T2, TLR9 (Homo sapiens, UniProt Q9NR96); assay: Human PBMC cell-based assay, TLR9 agonist ODN-2216 stimulation, cytokine (IL-6 and IFNα) readout; details: human PBMCs, ODN-2216 3 μM, 6 hours; Table 26; read-out: TLR-9 EC50
T2 construct: lymphocytes, monocytes and dendritic cells that express TLR7, TLR8 and TLR9; endogenous in cells; host or cells: human PBMCs from healthy donors
T2 sequence (Q9NR96 26-1032): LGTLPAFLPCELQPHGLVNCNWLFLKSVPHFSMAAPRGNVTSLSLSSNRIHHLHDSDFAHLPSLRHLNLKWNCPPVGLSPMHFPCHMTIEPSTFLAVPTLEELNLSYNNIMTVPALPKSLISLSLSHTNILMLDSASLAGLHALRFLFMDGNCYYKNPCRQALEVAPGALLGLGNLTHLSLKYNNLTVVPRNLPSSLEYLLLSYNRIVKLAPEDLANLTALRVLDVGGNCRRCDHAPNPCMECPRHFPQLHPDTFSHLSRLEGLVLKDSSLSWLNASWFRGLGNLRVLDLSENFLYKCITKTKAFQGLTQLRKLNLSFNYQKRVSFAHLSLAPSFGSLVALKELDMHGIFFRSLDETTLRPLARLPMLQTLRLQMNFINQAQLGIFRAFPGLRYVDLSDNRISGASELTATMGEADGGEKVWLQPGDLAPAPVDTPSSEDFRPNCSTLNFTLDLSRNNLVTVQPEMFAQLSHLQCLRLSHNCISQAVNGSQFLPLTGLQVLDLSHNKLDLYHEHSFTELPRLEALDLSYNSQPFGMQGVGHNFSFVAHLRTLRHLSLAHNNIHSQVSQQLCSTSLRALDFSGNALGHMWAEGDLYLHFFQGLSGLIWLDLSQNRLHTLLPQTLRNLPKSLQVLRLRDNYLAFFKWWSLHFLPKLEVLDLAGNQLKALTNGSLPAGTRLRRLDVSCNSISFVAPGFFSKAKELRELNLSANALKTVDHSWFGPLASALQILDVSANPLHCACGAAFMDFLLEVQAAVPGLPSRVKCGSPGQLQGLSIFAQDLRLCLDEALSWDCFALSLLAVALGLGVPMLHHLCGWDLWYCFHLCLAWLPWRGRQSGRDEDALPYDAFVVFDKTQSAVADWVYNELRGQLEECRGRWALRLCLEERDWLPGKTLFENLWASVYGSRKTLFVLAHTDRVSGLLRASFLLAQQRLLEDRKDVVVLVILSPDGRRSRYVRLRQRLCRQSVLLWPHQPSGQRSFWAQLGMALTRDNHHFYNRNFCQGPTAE
Source text: as §1, §2

Structure (SMILES): Cc1cc(-c2[nH]c3cc(-c4ccnc(N5CCOCC5)c4)ccc3c2C)cc(C)n1 [Example 59, 4-(4-(2-(2,6-dimethylpyridin-4-yl)-3-methyl-1H-indol-6-yl)pyridin-2-yl)morpholine]
- EC50 (TLR7): 0.809 µM
- EC50 (TLR9): 1.78 µM

Structure (SMILES): COc1ccc(-c2[nH]c3cc(-c4ccc(N5CCNCC5)nc4)ccc3c2C)cc1OC [Example 81]
- EC50 (TLR7): 0.0344 µM
- EC50 (TLR9): 0.758 µM

Structure (SMILES): Cc1cc(-c2[nH]c3cc(-c4cnn(C5CCCNC5)c4)ccc3c2C)cc(C)n1 (stereo not shown) [Example 18]
- EC50 (TLR7): 0.0899 µM
- EC50 (TLR9): 0.0876 µM

Structure (SMILES): Cc1cc(-c2[nH]c3cc(-c4ccc(N5CCNCC5)nc4)ccc3c2C)cc(N)n1 [Example 78]
- EC50 (TLR7): 0.0331 µM
- EC50 (TLR9): 0.121 µM

Structure (SMILES): Cc1cc(-c2[nH]c3cc(-c4ccc(C(=O)N5CCNCC5)cc4)ccc3c2C)cc(C)n1 [Example 8]
- EC50 (TLR7): 0.0843 µM
- EC50 (TLR9): 0.0844 µM

Structure (SMILES): CNCCN(C)c1ccc(-c2ccc3c(C)c(-c4cc(C)nc(C)c4)[nH]c3c2)cn1 [Example 30]
- EC50 (TLR7): 0.0241 µM
- EC50 (TLR9): 0.0558 µM

Structure (SMILES): CCc1c(-c2cc(C)nc(C)c2)[nH]c2cc(C3CCNCC3)ccc12 [Example 49, 2-(2,6-dimethylpyridin-4-yl)-3-ethyl-6-(piperidin-4-yl)-1H-indole]
- EC50 (TLR7): 0.549 µM
- EC50 (TLR9): 0.358 µM

Structure (SMILES): Cc1cc(-c2[nH]c3cc(-c4ccc(N5CCNCC5)nc4)ccc3c2C2CC2)cc(C)n1 [Example 63, 3-cyclopropyl-2-(2,6-dimethylpyridin-4-yl)-6-(6-(piperazin-1-yl)pyridin-3-yl)-1H-indole]
- EC50 (TLR7): 0.0048 µM
- EC50 (TLR9): 0.189 µM

Structure (SMILES): Cc1cc(-c2[nH]c3cc(-c4cnc5[nH]c(C)nc5c4)ccc3c2C)cc(C)n1 [Example 45]
- EC50 (TLR7): 0.331 µM
- EC50 (TLR9): 0.621 µM

Structure (SMILES): Cc1cc(-c2[nH]c3cc(-c4ccc(S(=O)(=O)C5CCNCC5)cc4)ccc3c2C)cc(C)n1 [Example 42]
- EC50 (TLR7): 0.15 µM
- EC50 (TLR9): 0.106 µM

Structure (SMILES): Cc1cc(-c2[nH]c3cc(-c4cnn(CCN)c4)ccc3c2C)cc(C)n1 [Example 16]
- EC50 (TLR7): 0.255 µM
- EC50 (TLR9): 0.275 µM

The next lines start with the values.

- EC50 (TLR7): 1.26 µM
- EC50 (TLR9): 0.188 µM
Structure (SMILES): Cc1cc(-c2[nH]c3cc(-c4ccc(N5CCNCC5)nc4)cnc3c2C)cc(C)n1 [Example 149, 2-(2,6-dimethyl-4-pyridyl)-3-methyl-6-(6-piperazin-1-yl-3-pyridyl)-1H-pyrrolo[3,2-b]pyridine]

- EC50 (TLR7): 0.0179 µM
- EC50 (TLR9): 0.0146 µM
Structure (SMILES): Cc1cc(-c2[nH]c3cc(-c4ccc(N5CCC(NCCO)CC5)nc4)ccc3c2C)cc(C)n1 [Example 131, 2-((1-(5-(2-(2,6-dimethylpyridin-4-yl)-3-methyl-1H-indol-6-yl)pyridin-2-yl)piperidin-4-yl)amino)ethan-1-ol]

- EC50 (TLR7): 1.72 µM
- EC50 (TLR9): 0.316 µM
Structure (SMILES): Cc1cc(-c2[nH]c3cc(-c4ccc(N5CCNCC5)nc4)ccc3c2C#N)cc(C)n1 [Example 101, 2-(2,6-dimethylpyridin-4-yl)-6-(6-(piperazin-1-yl)pyridin-3-yl)-1H-indole-3-carbonitrile]

- EC50 (TLR7): 0.0009 µM
- EC50 (TLR9): 0.0312 µM
Structure (SMILES): Cc1cc(-c2[nH]c3cc(-c4ccc(N5CC[C@@H](N)C5)nc4)ccc3c2C2CC2)cc(C)n1 [Example 105]

- EC50 (TLR7): 1.42 µM
- EC50 (TLR9): 0.178 µM
Structure (SMILES): Cc1cc(-c2[nH]c3nc(C4CCNCC4)ccc3c2C)cc(C)n1 [Example 152, 2-(2,6-dimethyl-4-pyridyl)-3-methyl-6-(4-piperidyl)-1H-pyrrolo[2,3-b]pyridine]

- EC50 (TLR7): > 1 µM
- EC50 (TLR9): 0.428 µM
Structure (SMILES): Cc1c(-c2cnn3c2CCC3)[nH]c2cc(-c3ccc(N4CCNCC4)nc3)ccc12 [Example 89]

- EC50 (TLR7): 0.016 µM
- EC50 (TLR9): 0.055 µM
Structure (SMILES): Cc1cc(-c2[nH]c3cc(-c4nnc(C5CCNCC5)o4)ccc3c2C)cc(C)n1 [Example 190, 2-[2-(2,6-dimethyl-4-pyridyl)-3-methyl-1H-indol-6-yl]-5-(4-piperidyl)-1,3,4-oxadiazole]

- EC50 (TLR7): 0.119 µM
- EC50 (TLR9): 0.0374 µM
Structure (SMILES): Cc1cc(-c2[nH]c3cc(-c4csc(N5CCNCC5)n4)ccc3c2C)cc(C)n1 [Example 146, 4-[2-(2,6-dimethyl-4-pyridyl)-3-methyl-1H-indol-6-yl]-2-piperazin-1-yl-thiazole]

- EC50 (TLR7): 0.0583 µM
- EC50 (TLR9): 0.114 µM
Structure (SMILES): Cc1cc(-c2[nH]c3cc(-c4ccc(N5CCN(C(=O)[C@@H]6CNCCO6)CC5)nc4)ccc3c2C)cc(C)n1 [Example 112]

- EC50 (TLR7): 0.0322 µM
- EC50 (TLR9): 0.0636 µM
Structure (SMILES): Cc1cc(-c2[nH]c3cc(-c4ccc(N5CCN(C(=O)[C@@H]6COCCN6)CC5)nc4)ccc3c2C)cc(C)n1 [Example 110]

- EC50 (TLR7): > 1 µM
- EC50 (TLR9): 1.37 µM
Structure (SMILES): Cc1cc(-c2[nH]c3cc(-c4ccc(N5CCN(CC(F)(F)F)CC5)nc4)ccc3c2C)cc(C)n1 [Example 142]

- EC50 (TLR7): 0.0026 µM
- EC50 (TLR9): 0.733 µM
Structure (SMILES): Cc1c(-c2ccc(C#N)c3ncccc23)[nH]c2cc(-c3ccc(N4CCNCC4)nc3)ccc12 [Example 97]

- EC50 (TLR7): 0.0169 µM
- EC50 (TLR9): 0.268 µM
Structure (SMILES): Cc1cc(-c2[nH]c3cc(-c4cnn(C5CC6CCC(C5)N6)c4)ccc3c2C)cc(C)n1 (stereo not shown) [Example 184]

- EC50 (TLR7): 0.0488 µM
- EC50 (TLR9): 0.277 µM
Structure (SMILES): Cc1cc(-c2[nH]c3cc(-c4ccc(C(=O)N5CCC(N)CC5)nc4)ccc3c2C)cc(C)n1 [Example 145, (4-aminopiperidin-1-yl)(5-(2-(2,6-dimethylpyridin-4-yl)-3-methyl-1H-indol-6-yl)pyridin-2-yl)methanone]

- EC50 (TLR7): 0.0153 µM
- EC50 (TLR9): 0.0355 µM
Structure (SMILES): Cc1cc(-c2[nH]c3cc(-c4ccc(N5CCN(C(=O)[C@H]6CCCN6C)CC5)nc4)ccc3c2C)cc(C)n1 [Example 109]
